The supplement of paper PMC10307832

How the values were obtained:
Experiment in all cases: relative viability (nuclei count vs DMSO), 5 days (fraction); higher = more cells survive
[1] = tested on: PC-14
How it was run: (§1)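 One day after seeding in 1536-well plates, lung cancer cell lines were dosed by pin tool. Dosing was either single-drug or a fixed anchor-drug dose plus five library-drug doses (not always all listed) in √10 steps. After 5 days, nuclei were stained in one fix-and-stain step and counted on 4× images, and relative viability is the nuclei count of treated wells over that of vehicle wells, given as the median of duplicate plates.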

[2] = tested on: NCI-H1355
How it was run: as §1

[3] = tested on: A-427
How it was run: as §1

[4] = tested on: NCI-H2087
How it was run: as §1

[5] = tested on: NCI-H1395
How it was run: as §1

[6] = tested on: PC-3 [JPC-3]
How it was run: as §1

[7] = tested on: NCI-H1792
How it was run: as §1

[8] = tested on: NCI-H322M
How it was run: as §1

[9] = tested on: NCI-H1666
How it was run: as §1

[10] = tested on: LCLC-97TM1
How it was run: as §1

[11] = tested on: NCI-H1915
How it was run: as §1

[12] = tested on: NCI-H1651
How it was run: as §1

[13] = tested on: LK-2
How it was run: as §1

[14] = tested on: NCI-H2085
How it was run: as §1

[15] = tested on: H3255
How it was run: as §1

[16] = tested on: ABC-1
How it was run: as §1

[17] = tested on: CAL-12T
How it was run: as §1

[18] = tested on: NCI-H838
How it was run: as §1

[19] = tested on: NCI-H358
How it was run: as §1

O=c1[nH]c2ccccc2n1C1CCN(CCCC(c2ccc(F)cc2)c2ccc(F)cc2)CC1 [Pimozide] + NC(=O)Nc1cc(-c2cccc(F)c2)sc1C(=O)N[C@H]1CCCNC1 [AZD7762] (partner 0.2 µM)
relative viability ([1]; first compound 0.253 µM): 0.348
relative viability ([1]; first compound 0.8 µM): 0.271
relative viability ([1]; first compound 2.53 µM): 0.328
relative viability ([1]; first compound 8 µM): 0.402
relative viability ([2]; first compound 0.08 µM): 0.757
relative viability ([2]; first compound 0.253 µM): 0.732
relative viability ([2]; first compound 0.8 µM): 0.701
relative viability ([2]; first compound 2.53 µM): 0.641
relative viability ([2]; first compound 8 µM): 0.761
relative viability ([3]; first compound 0.08 µM): 0.711
relative viability ([3]; first compound 0.253 µM): 0.703
relative viability ([3]; first compound 0.8 µM): 0.764
relative viability ([3]; first compound 2.53 µM): 0.637
relative viability ([3]; first compound 8 µM): 0.676
relative viability ([4]; first compound 0.08 µM): 1.27
relative viability ([4]; first compound 0.253 µM): 1.31
relative viability ([4]; first compound 2.53 µM): 1.22
relative viability ([4]; first compound 8 µM): 1.25
relative viability ([5]; first compound 0.08 µM): 0.369
relative viability ([5]; first compound 0.253 µM): 0.42
relative viability ([5]; first compound 0.8 µM): 0.417
relative viability ([5]; first compound 2.53 µM): 0.389
relative viability ([5]; first compound 8 µM): 0.394
relative viability ([6]; first compound 0.253 µM): 0.719
relative viability ([6]; first compound 0.8 µM): 0.72
relative viability ([6]; first compound 2.53 µM): 0.832
relative viability ([6]; first compound 8 µM): 0.751
relative viability ([7]; first compound 0.08 µM): 0.793
relative viability ([7]; first compound 0.253 µM): 0.733
relative viability ([7]; first compound 0.8 µM): 0.679
relative viability ([7]; first compound 2.53 µM): 0.748
relative viability ([7]; first compound 8 µM): 0.5
relative viability ([8]; first compound 0.08 µM): 0.502
relative viability ([8]; first compound 0.253 µM): 0.538
relative viability ([8]; first compound 0.8 µM): 0.58
relative viability ([8]; first compound 2.53 µM): 0.625
relative viability ([8]; first compound 8 µM): 0.387
relative viability ([9]; first compound 0.08 µM): 0.803
relative viability ([9]; first compound 0.253 µM): 0.831
relative viability ([9]; first compound 0.8 µM): 0.76
relative viability ([9]; first compound 2.53 µM): 0.747
relative viability ([9]; first compound 8 µM): 0.881
relative viability ([10]; first compound 0.08 µM): 0.363
relative viability ([10]; first compound 0.253 µM): 0.23
relative viability ([10]; first compound 0.8 µM): 0.171
relative viability ([10]; first compound 2.53 µM): 0.246
relative viability ([10]; first compound 8 µM): 0.376
relative viability ([11]; first compound 0.08 µM): 0.661
relative viability ([11]; first compound 0.253 µM): 0.61
relative viability ([11]; first compound 2.53 µM): 0.674
relative viability ([11]; first compound 8 µM): 0.718
relative viability ([12]; first compound 0.08 µM): 0.453
relative viability ([12]; first compound 0.253 µM): 0.423
relative viability ([12]; first compound 0.8 µM): 0.41
relative viability ([12]; first compound 2.53 µM): 0.433
relative viability ([12]; first compound 8 µM): 0.469
relative viability ([13]; first compound 0.08 µM): 0.539
relative viability ([13]; first compound 0.253 µM): 0.438
relative viability ([13]; first compound 0.8 µM): 0.376
relative viability ([13]; first compound 8 µM): 0.417
relative viability ([14]; first compound 0.08 µM): 0.937
relative viability ([14]; first compound 0.253 µM): 0.971
relative viability ([14]; first compound 0.8 µM): 0.922
relative viability ([14]; first compound 2.53 µM): 1.07
relative viability ([14]; first compound 8 µM): 0.953
relative viability ([15]; first compound 0.253 µM): 0.858
relative viability ([15]; first compound 0.8 µM): 0.777
relative viability ([15]; first compound 2.53 µM): 0.838
relative viability ([15]; first compound 8 µM): 0.879
relative viability ([16]; first compound 0.253 µM): 0.775
relative viability ([16]; first compound 0.8 µM): 0.817
relative viability ([16]; first compound 2.53 µM): 0.583
relative viability ([16]; first compound 8 µM): 0.509
relative viability ([17]; first compound 0.08 µM): 0.64
relative viability ([17]; first compound 0.253 µM): 0.587
relative viability ([17]; first compound 0.8 µM): 0.539
relative viability ([17]; first compound 2.53 µM): 0.511
relative viability ([17]; first compound 8 µM): 0.587
relative viability ([18]; first compound 0.08 µM): 0.937
relative viability ([18]; first compound 0.253 µM): 0.946
relative viability ([18]; first compound 0.8 µM): 0.908
relative viability ([18]; first compound 2.53 µM): 0.938
relative viability ([18]; first compound 8 µM): 0.966
relative viability ([19]; first compound 0.08 µM): 0.565
relative viability ([19]; first compound 0.253 µM): 0.67
relative viability ([19]; first compound 0.8 µM): 0.625
relative viability ([19]; first compound 2.53 µM): 0.508
relative viability ([19]; first compound 8 µM): 0.505
